The subject of test [1] is BAE cells. Description: cells. The note with it: Bos taurus, Endothelial cell, 24 h, read-out: IC50 for viability.
Test [2] concerns the target bovine serum albumin (Bos taurus, UniProt P02769). The test can be described thus: Incorporation of GSAO-B into purified protein, streptavidin-peroxidase blot (negative control protein). The note with it: GSAO-B 100 μM, protein 5 μM, 30 minutes. The format is binding. Here is the method:
(§1) FIG. 14. Interaction of GSAO-B with PDI and thioredoxin. A Structure of GSAO-B. B Purified human recombinant PDI (5 μM), human recombinant thioredoxin (5 μM) or bovine serum albumin (5 μM) was incubated with dithiothreitol (10 μM) for 60 minutes at room temperature to ensure that the active site disulfide(s) of PDI and thioredoxin were in the reduced dithiol form. GSAO-B (100 μM) or GSAO-B and DMP (400 μM) was then added and the reactions incubated for 30 minutes at room temperature. The labelled PDI (lanes 1 and 2), thioredoxin (lanes 3 and 4) and albumin (lane 5) (75 pmoles) was resolved on […] SDS-PAGE, transferred to PVDF membrane, and blotted with streptavidin-peroxidase to detect the GSAO-B label. The positions of Mr markers are shown at left.
Human recombinant PDI and thioredoxin bound GSAO-B (FIG. 14). Recombinant human protein disulfide isomerase (PDI) was produced in E. coli and purified according to Jiang et al. (1999). […] Proteins were detected by Western blot using an anti-PDI murine monoclonal antibody (Jiang et al., 1999) (used at 2 μg per mL). […] Chemiluminescence films were analysed using a GS-700 Imaging Densitometer and Multi-Analyst software (Bio-Rad, Hercules, Calif.).

The test system of test [3] is PDI on the endothelial cell surface. The test can be described thus: GSAO-B labelling of cell surface PDI, streptavidin-agarose pull-down and anti-PDI blot. The format is cell-based, bovine. The settings on record: GSAO-B 100 μM, absence of DMP. The procedure: FIG. 17. PDI was one of the GSAO-B labelled proteins on the endothelial cell surface. HUVEC (5×10^6 cells in 0.75 mL) were labelled with GSAO-B (100 μM) for 30 minutes at 37° C. in the absence (lanes 1) or presence of DMP (400 μM) (lane 2). The cells were lysed and incubated with streptavidin-agarose beads to collect the biotin-labelled proteins. The labelled proteins were resolved on 4–15% SDS-PAGE, transferred to PVDF membrane, and blotted with anti-PDI monoclonal antibodies. The results represent labelling of 5×10^6 endothelial cells. The positions of Mr markers are shown at left.
BAE cells were labelled with GSAO-B in the absence or presence of DMP, lysed and incubated with streptavidin-agarose beads to collect the biotin-labelled proteins. The labelled proteins were eluted from the beads, resolved on SDS-PAGE, transferred to PVDF membrane, and blotted with anti-PDI polyclonal antibodies.

Test [4] addresses T1, Human recombinant PDI (Homo sapiens, UniProt P07237).
T1 construct: made in house; host or cells: E. coli
Description: Incorporation of GSAO-B into purified protein, streptavidin-peroxidase blot. The format is binding. The procedure:
as §1
(§2) Human recombinant PDI and thioredoxin bound GSAO-B (FIG. 14). Recombinant human protein disulfide isomerase (PDI) was produced in E. coli and purified according to Jiang et al. (1999). In the experiment, purified PDI, thioredoxin or albumin as negative control were incubated with a 2-fold molar excess of dithiothreitol for 60 minutes to ensure that the active site disulfides of PDI and thioredoxin were in the reduced dithiol state. The proteins were then incubated with GSAOB or GSAO-B and a 4-fold molar excess of DMP for 30 minutes. Equivalent moles of the labelled proteins were resolved on SDS-PAGE, transferred to PVDF membrane, and blotted with streptavidin-peroxidase to detect the GSAO-B label. Samples were resolved on 4–15% SDS-PAGE under non-reducing conditions (Laemmli, 1970) and transferred to PVDF membrane. Proteins were detected by Western blot using an anti-PDI murine monoclonal antibody (Jiang et al., 1999) (used at 2 μg per mL). Rabbit anti-mouse horseradish peroxidase conjugated antibodies (Dako Corporation, Carpinteria, Calif.) were used at 1:2000 dilution. GSAO-B-labelled proteins were blotted with streptavidin peroxidase (Amersham, Sydney, NSW) used at 1:1000 dilution. […] Chemiluminescence films were analysed using a GS-700 Imaging Densitometer and Multi-Analyst software (Bio-Rad, Hercules, Calif.).

Test [5] addresses T2, Thioredoxin (Homo sapiens, UniProt P10599).
T2 construct: purchased American Diagnostica, Greenwich, Conn; host or cells: E. coli
T2 sequence (P10599 1-105): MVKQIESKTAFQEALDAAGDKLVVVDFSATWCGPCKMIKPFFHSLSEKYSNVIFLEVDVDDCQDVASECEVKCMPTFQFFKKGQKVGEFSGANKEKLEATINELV
Described as above. The format is binding. The settings on record: GSAO-B 100 μM, protein 5 μM, 30 minutes. The procedure:
as §1, §2

The subject of test [6] is HMEC-1 or HUVE cells. Description: Labelling of endothelial cell surface proteins with GSAO-B. The format is cell-based, human. The note with it: GSAO-B 100 μM, 30 minutes. Here is the method: FIG. 16. Identification of endothelial cell surface proteins that contain closely spaced dithiol(s). A The surface of HMEC-1 or HUVE cells (2×10^6 cells in 0.4 mL) was labelled with GSAO-B (100 μM) for 30 minutes at room temperature in the absence (lanes 1 and 3) or presence of DMP (400 μM) (lane 2). The endothelial cells were lysed and the lysate from both incubations was resolved on 4–15% SDS-PAGE, transferred to PVDF membrane, and blotted with streptavidin peroxidase to detect the GSAO-B label. The results represent labelling of 3×10^4 HMEC-1 (lanes 1 and 2) of HUVE cells (lane 3). The positions of Mr markers are shown at left. B Densitometry profile of the surface labelled proteins (lanes 1 and 3). The apparent Mr's of the individual proteins are indicated.
Human umbilical vein endothelial cells (HUVEC) (Wall et al., 1978) and the human dermal microvascular endothelial cell line, HMEC-1 (Ades et al., 1992), were harvested and cultured as indicated. […] Bound proteins were washed 5 times with 50 mM Tris/HCl, pH 8 buffer containing 0.15 M NaCl and 0.05% Triton X-100, resolved on SDS-PAGE, transferred to PVDF membrane, and the GSAO-B-labelled proteins detected by Western blot.

Entries after “also recorded” stand apart in the source; their conditions may differ.

T1 sequence (P07237 18-508): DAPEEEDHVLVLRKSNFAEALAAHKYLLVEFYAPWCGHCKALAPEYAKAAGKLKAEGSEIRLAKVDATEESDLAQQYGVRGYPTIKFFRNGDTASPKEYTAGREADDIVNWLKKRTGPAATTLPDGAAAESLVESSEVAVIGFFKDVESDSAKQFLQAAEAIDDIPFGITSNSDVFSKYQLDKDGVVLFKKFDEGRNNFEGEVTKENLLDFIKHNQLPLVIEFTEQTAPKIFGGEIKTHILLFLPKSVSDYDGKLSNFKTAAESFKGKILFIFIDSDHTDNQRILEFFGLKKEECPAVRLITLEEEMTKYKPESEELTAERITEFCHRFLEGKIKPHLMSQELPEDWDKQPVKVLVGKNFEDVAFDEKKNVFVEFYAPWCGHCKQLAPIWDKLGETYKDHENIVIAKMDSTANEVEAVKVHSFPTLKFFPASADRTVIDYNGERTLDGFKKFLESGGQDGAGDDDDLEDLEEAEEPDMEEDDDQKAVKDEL
bovine serum albumin, sequence (P02769 25-607): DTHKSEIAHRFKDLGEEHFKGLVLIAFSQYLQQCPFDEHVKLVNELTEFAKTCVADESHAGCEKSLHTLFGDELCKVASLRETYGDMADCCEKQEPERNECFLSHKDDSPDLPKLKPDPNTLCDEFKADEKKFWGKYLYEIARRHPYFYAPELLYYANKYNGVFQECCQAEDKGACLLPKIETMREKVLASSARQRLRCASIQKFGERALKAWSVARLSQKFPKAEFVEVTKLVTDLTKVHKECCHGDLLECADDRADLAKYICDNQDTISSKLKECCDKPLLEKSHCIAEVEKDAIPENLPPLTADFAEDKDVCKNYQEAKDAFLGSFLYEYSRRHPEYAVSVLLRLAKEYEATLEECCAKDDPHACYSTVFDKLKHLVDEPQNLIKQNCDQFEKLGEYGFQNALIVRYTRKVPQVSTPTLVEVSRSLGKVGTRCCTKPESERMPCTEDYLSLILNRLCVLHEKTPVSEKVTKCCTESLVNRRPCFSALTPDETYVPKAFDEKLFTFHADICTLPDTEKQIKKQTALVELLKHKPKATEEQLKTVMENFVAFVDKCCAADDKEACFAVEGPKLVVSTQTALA

As for `O=[As]c1ccc(NC(=O)CSCCC(=O)N[C@H]2C(O)O[C@H](CO)[C@@H](O)[C@@H]2O)cc1` (stereo partly drawn) [GlcAO, N-(3-(4-arsenosophenylcarbamoylmethylthio)propanoyl)-D-glucosamine], the IC50 (in general, the concentration that inhibits the measured activity by half) in test [1] is less than 1 µM.
Still for that read-out and setting: the result for `O=[As]c1ccc(NC(=O)CSCCC(=O)N[C@@H](CS(=O)(=O)O)C(=O)O)cc1` (stereo partly drawn) [Cys*AO, N-(3-(4-arsenosophenylcarbamoylmethylthio)propanoyl)-L-cysteic acid] reads less than 10 µM; that for `O=[As]c1ccc(NC(=O)CSCCC(=O)N[C@@H](CCC(=O)O)C(=O)O)cc1` (stereo partly drawn) [GluAO, N-(3-(4-arsenosophenylcarbamoylmethylthio)propanoyl)-L-glutamic acid], less than 10 µM.
Regarding “4-(N-(S-(N-(6-(N-(6-(N-(biotinoyl)-amino)hexanoyl)amino)hexanoyl)glutathiony)acetyl)amino)phenylarsenoxide [GSAO-B]”, the “incorporation of GSAO-B” value in test [2] was “albumin did not”; in test [4] (GSAO-B 100 μM, protein 5 μM, 30 minutes), “bound GSAO-B; also recorded: incorporated GSAO-B”; in test [5] it was “bound GSAO-B; also recorded: incorporated GSAO-B”. The “labelling of cell surface PDI by GSAO-B” value in test [3] is listed as “PDI was one of the proteins on the endothelial cell surface that incorporated GSAO-B”. For the same molecule, the “density of labelling of PDI relative to thioredoxin” value in test [4] (equivalent moles of labelled proteins) is reported as “approximately twice”. Moreover, the “proteins on the endothelial cell surface that incorporated GSAO-B” value in test [6] is reported as “approximately ten proteins”.
With `O=[As]c1ccc(NC(=O)CSCCC(=O)N[C@@H](CC(=O)O)C(=O)O)cc1` (stereo partly drawn) [AspAO, N-(3-(4-arsenoso-phenylcarbamoylmethylthio)propanoyl)-L-aspartic acid], in test [1], the IC50 was less than 1 µM.

The values are drawn from patent publication US7186695B2 (priority 2001, dated 2007).
